# Counter-ions that a name gives are not always drawn.
# Legend:
# PDE10A (human) = target: T1, PDE10A (human) (Homo sapiens, UniProt Q9Y233); test: Measurement of PDE activity (HTRF cAMP kit), human PDE10A; format: biochemical; conditions: PDE enzymatic reaction, substrate 20 nM for PDE10, 60 minutes at 29 C
# T1 construct: purchased BPS Bioscience
# In short: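 HTRF detection of cAMP left after hydrolysis, expressed as percent of uninhibited control to derive IC50. Reaction: serially diluted inhibitor mixed with recombinant enzyme, started with 20 nM cAMP, 60 min at 29 °C in Tris-HCl pH 7.5 buffer containing MgCl2 and BSA.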
# [1] = Determination of the microsomal half-life, rat liver microsomes; conditions: for microsomal CLint at 0.5 μM: rat, liver microsomes, pH 7.4; for Rat mCl (mikrosomal clearance): rat liver microsomes, 0.5 μM test substance, 0.25 mg microsomal protein, pH 7.4, 37° C., NADPH
# [2] = Determination of the microsomal half-life, human liver microsomes; conditions: for microsomal CLint at 0.5 μM: human, liver microsomes, pH 7.4; for Human mCl (mikrosomal clearance): human liver microsomes, 0.5 μM test substance, 0.25 mg microsomal protein, pH 7.4, 37° C., NADPH
# T1 sequence (Q9Y233 whole entry): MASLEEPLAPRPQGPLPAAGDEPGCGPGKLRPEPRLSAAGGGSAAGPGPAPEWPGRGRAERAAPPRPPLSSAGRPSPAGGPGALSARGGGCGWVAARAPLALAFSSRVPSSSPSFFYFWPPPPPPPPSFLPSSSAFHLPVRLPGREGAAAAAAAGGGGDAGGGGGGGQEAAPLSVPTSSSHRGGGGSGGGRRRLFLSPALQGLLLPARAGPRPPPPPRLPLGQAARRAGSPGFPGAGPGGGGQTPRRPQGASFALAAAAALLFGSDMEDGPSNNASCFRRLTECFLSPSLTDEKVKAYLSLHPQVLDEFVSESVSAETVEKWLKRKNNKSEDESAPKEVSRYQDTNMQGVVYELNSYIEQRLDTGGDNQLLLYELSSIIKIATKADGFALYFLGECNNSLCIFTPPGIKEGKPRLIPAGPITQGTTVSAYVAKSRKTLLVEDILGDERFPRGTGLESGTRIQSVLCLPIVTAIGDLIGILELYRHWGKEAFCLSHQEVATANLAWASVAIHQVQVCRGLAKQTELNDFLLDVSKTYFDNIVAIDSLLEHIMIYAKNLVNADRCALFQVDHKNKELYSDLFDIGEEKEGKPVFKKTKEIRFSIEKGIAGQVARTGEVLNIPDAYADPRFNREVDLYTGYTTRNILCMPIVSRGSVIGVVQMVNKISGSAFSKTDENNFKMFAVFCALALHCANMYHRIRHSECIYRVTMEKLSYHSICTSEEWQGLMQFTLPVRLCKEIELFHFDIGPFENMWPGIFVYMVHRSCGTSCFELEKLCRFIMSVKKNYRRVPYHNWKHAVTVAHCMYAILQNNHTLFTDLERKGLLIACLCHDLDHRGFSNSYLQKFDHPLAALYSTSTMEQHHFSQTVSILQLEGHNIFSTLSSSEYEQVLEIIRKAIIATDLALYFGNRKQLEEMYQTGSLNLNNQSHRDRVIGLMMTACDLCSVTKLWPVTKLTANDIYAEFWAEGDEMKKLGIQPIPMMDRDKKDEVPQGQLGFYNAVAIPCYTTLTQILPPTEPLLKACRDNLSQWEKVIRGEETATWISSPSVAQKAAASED
SMILES,IC50 (PDE10A (human)) [nM],microsomal CLint at 0.5 μM [1] [µL/min/mg],microsomal CLint at 0.5 μM [2] [µL/min/mg],Rat mCl (mikrosomal clearance) [1],Human mCl (mikrosomal clearance) [2]
"O=C1c2c(cccc2-c2ccc(C(F)(F)F)nc2)CN1CCc1ccc2ccccc2n1 [Example 98, 2-(2-Quinolin-2-yl-ethyl)-7-(6-trifluoromethyl-pyridin-3-yl)-2,3-dihydro-isoindol-1-one]",200 to 500,< 100,100 to 220,–,–
"COc1ccc2nc(CCN3Cc4cccc(N5CCOCC5)c4C3=O)ccc2c1 [Example 116, 2-[2-(6-Methoxy-quinolin-2-yl)-ethyl]-7-morpholin-4-yl-2,3-dihydro-isoindol-1-one hydrochloride]",< 100,< 100,100 to 220,–,–
"O=C(O)C1CN(c2ccnc3c2C(=O)N(CCc2ccc4ccccc4n2)C3)C1 [compound 446, 1-[5-oxo-6-[2-(2-quinolyl)ethyl]-7H-pyrrolo[3,4-b]pyridin-4-yl]azetidine-3-carboxylic acid]",100 to 200,< 100,< 100,–,–
"COc1ccc(NC2COC2)c2c1CN(CCc1cn3ccccc3n1)C2=O [Example 362, 2-(2-Imidazo[1,2-a]pyridin-2-yl-ethyl)-4-methoxy-7-(oxetan-3-ylamino)-2,3-dihydro-isoindol-1-one]",–,< 100,< 100,–,–
"O=C1c2c(cccc2N2CCOCC2)CN1CCc1nc2ccccn2n1 [Example 231, 7-Morpholin-4-yl-2-(2-[1,2,4]triazolo[1,5-a]pyridin-2-yl-ethyl)-2,3-dihydro-isoindol-1-one]",–,< 100,< 100,–,–
"Cc1ccc(COc2cccc3c2C(=O)N(CCc2ccc4ccccc4n2)C3)cn1 [Example 172, 7-(6-Methyl-pyridin-3-ylmethoxy)-2-(2-quinolin-2-yl-ethyl)-2,3-dihydro-isoindol-1-one]",–,100 to 220,100 to 220,–,–
"O=C1c2c(cccc2OCc2ccccn2)CN1CCc1ccc2ccccc2n1 [Example 129, 7-(Pyridin-2-ylmethoxy)-2-(2-quinolin-2-yl-ethyl)-2,3-dihydro-isoindol-1-one]",–,< 100,100 to 220,–,–
"Cc1nc(CCN2Cc3nccc(-c4ccncc4)c3C2=O)sc1C [compound 408, 6-[2-(4,5-Dimethylthiazol-2-yl)ethyl]-4-(4-pyridyl)-7H-pyrrolo[3,4-b]pyridin-5-one]",–,100 to 220,< 100,–,–
"O=C1c2c(NC3COC3)ccnc2CN1CCc1cn2ccccc2n1 [Example 360, 6-(2-Imidazo[1,2-a]pyridin-2-yl-ethyl)-4-(oxetan-3-ylamino)-6,7-dihydro-pyrrolo[3,4-b]pyridin-5-one]",–,< 100,< 100,–,–
"O=C1c2c(cccc2-c2ccncc2)CN1CCc1ccnc(-c2ccccc2)n1 [Example 122, (2-(2-Phenylpyrimidin-4-yl)ethyl)-7-(pyridin-4-yl)isoindolin-1-one]",–,–,–,+ (+: 100-220 μl min^−1 mg^−1),++ (++: 100 μl min^−1 mg^−1)
"COc1ccc(N2CCN(C3CCN(C)CC3)CC2)c2c1CN(CCc1ccc3ccccc3n1)C2=O [Example 269, 4-Methoxy-7-[4-(1-methyl-piperidin-4-yl)-piperazin-1-yl]-2-(2-quinolin-2-yl-ethyl)-2,3-dihydro-isoindol-1-one di-trifluoroacetate]",–,< 100,< 100,–,–
"CN1CCN(Cc2ccc(-c3cccc4c3C(=O)N(CCc3ccc5ccccc5n3)C4)cc2)CC1 [Example 167, 7-[4-(4-Methyl-piperazin-1-ylmethyl)-phenyl]-2-(2-quinolin-2-yl-ethyl)-2,3-dihydro-isoindol-1-one trifluoroacetate]",–,100 to 220,> 220,–,–
"O=C1c2c(-c3ccncc3)ccnc2CN1CCc1cc2ccccc2o1 [compound 391, 6-[2-(Benzofuran-2-yl)ethyl]-4-(4-pyridyl)-7H-pyrrolo[3,4-b]pyridin-5-one]",–,< 100,< 100,–,–
"O=C1c2c(cccc2N2CCS(=O)(=O)CC2)CN1CCc1nc2ccccn2n1 [Example 232, 7-(1,1-Dioxothiomorpholin-4-yl)-2-(2-[1,2,4]triazolo[1,5-a]pyridin-2-yl-ethyl)-2,3-dihydro-isoindol-1-one]",–,< 100,< 100,–,–
"CN1CCN(c2ccnc3c2C(=O)N(CCc2nc4ccccc4n2C)C3)CC1 [Example 226, 6-[2-(1-Methyl-1H-benzoimidazol-2-yl)-ethyl]-4-(4-methyl-piperazin-1-yl)-6,7-dihydro-pyrrolo[3,4-b]pyridin-5-one trifluoroacetate]",–,< 100,< 100,–,–
"CN1CCN(c2cccc3c2C(=O)N(CCc2nc4ccccc4n2C)C3)CC1 [Example 254, 2-[2-(1-Methyl-1H-benzoimidazol-2-yl)-ethyl]-7-(4-methyl-piperazin-1-yl)-2,3-dihydro-isoindol-1-one]",–,< 100,< 100,–,–
"C[C@@H]1CN(c2cccc3c2C(=O)N(CCc2ccc4ccccc4n2)C3)CC[C@@H]1c1ccc(OC(F)(F)F)cc1F.O=C(O)C(F)(F)F [Example 147, 7-[(3S,4S)-4-(2-Fluoro-4-trifluoromethoxy-phenyl)-3-methyl-piperidin-1-yl]-2-(2-quinolin-2-yl-ethyl)-2,3-dihydro-isoindol-1-one trifluororacetate]",–,–,–,+ (+: 100-220 μl min^−1 mg^−1),∘ (∘ not avialable or >220 μl min^−1 mg^−1)
"C=C(C)c1ccc(Oc2ccc(-c3cccc4c3C(=O)N(CCc3ccc5ccccc5n3)C4)cc2)cc1 [Example 146, 7-[4-(4-Isopropenyl-phenoxy)-phenyl]-2-(2-quinolin-2-yl-ethyl)-2,3-dihydro-isoindol-1-one]",–,100 to 220,> 220,–,–
"O=C1c2cccc(-c3ccncc3)c2C(=O)N1CCc1ccc2ccccc2n1 [Example 249, 4-Pyridin-4-yl-2-(2-quinolin-2-yl-ethyl)-isoindole-1,3-dione dihydrochloride]",–,> 220,100 to 220,–,–
"Cn1c(CCN2Cc3nccc(NC4COC4)c3C2=O)nc2ccccc21 [Example 359, 6-[2-(1-Methyl-1H-benzoimidazol-2-yl)-ethyl]-4-(oxetan-3-ylamino)-6,7-dihydro-pyrrolo[3,4-b]pyridin-5-one]",–,< 100,< 100,–,–

# Further lines, with some results ahead:
IC50 (PDE10A (human)) [nM],microsomal CLint at 0.5 μM [1] [µL/min/mg],microsomal CLint at 0.5 μM [2] [µL/min/mg],SMILES,Rat mCl (mikrosomal clearance) [1],Human mCl (mikrosomal clearance) [2]
100 to 200,100 to 220,100 to 220,"O=C1c2c(cccc2NC2CCS(=O)(=O)C2)CN1CCc1ccc2ccccc2n1 (stereo not shown) [Example 190, 7-(1,1-Dioxo-tetrahydro-thiophen-3-ylamino)-2-(2-quinolin-2-yl-ethyl)-2,3-dihydro-isoindol-1-one]",–,–
–,100 to 220,> 220,"CC1CN(c2cccc3c2C(=O)N(CCc2ccc4ccccc4n2)C3)CCO1 (stereo not shown) [Example 228, 7-(2-Methyl-morpholin-4-yl)-2-(2-quinolin-2-yl-ethyl)-2,3-dihydro-isoindol-1-one trifluoroacetate]",–,–
–,> 220,100 to 220,"O=C1c2c(cccc2N2CC[C@@H]3NCC[C@@H]3C2)CN1CCc1ccc2ccccc2n1 [Example 220, 7-(3aR,7aS)-Octahydro-pyrrolo[3,2-c]pyridin-5-yl-2-(2-quinolin-2-yl-ethyl)-2,3-dihydro-isoindol-1-one trifluoroacetate]",–,–
–,100 to 220,< 100,"CN1CCN(c2cccc3c2CN(CCc2ccc4ccccc4n2)C3=O)CC1 [Example 144, 4-(4-Methyl-piperazin-1-yl)-2-(2-quinolin-2-yl-ethyl)-2,3-dihydro-isoindol-1-one]",–,–
–,> 220,100 to 220,"O=C1c2c(cccc2N2C[C@H]3CCCNC[C@H]3C2)CN1CCc1ccc2ccccc2n1 [Example 318, 7-(3aS,8aS)-Octahydro-pyrrolo[3,4-c]azepin-2-yl-2-(2-quinolin-2-yl-ethyl)-2,3-dihydro-isoindol-1-one trifluoroacetate]",–,–
–,< 100,100 to 220,"CN1CCN(C2CCN(c3cccc4c3C(=O)N(CCc3ccc5ccccc5n3)C4)CC2)CC1 [Example 100, 7-[4-(4-Methyl-piperazin-1-yl)-piperidin-1-yl]-2-(2-quinolin-2-yl-ethyl)-2,3-dihydro-isoindol-1-one trifluoroacetate]",–,–
–,100 to 220,< 100,"CC1CCN(c2cccc3c2C(=O)N(CCc2ccc4ccccc4n2)C3)CC1N (stereo not shown) [Example 174, 7-(3-Amino-4-methyl-piperidin-1-yl)-2-(2-quinolin-2-yl-ethyl)-2,3-dihydro-isoindol-1-one]",–,–
–,< 100,< 100,"CN(C)CC1CN(c2cccc3c2C(=O)N(CCc2ccc4ccccc4n2)C3)CCO1 (stereo not shown) [Example 229, 7-(2-Dimethylaminomethyl-morpholin-4-yl)-2-(2-quinolin-2-yl-ethyl)-2,3-dihydro-isoindol-1-one trifluoroacetate]",–,–
–,100 to 220,100 to 220,"COCC1CN(c2cccc3c2C(=O)N(CCc2ccc4ccccc4n2)C3)CCO1 (stereo not shown) [Example 298, 7-(2-Methoxymethyl-morpholin-4-yl)-2-(2-quinolin-2-yl-ethyl)-2,3-dihydro-isoindol-1-one]",–,–
–,> 220,< 100,"O=C1c2c(cccc2N2CC3CNCC3C2)CN1CCc1ccc2ccccc2n1 (stereo not shown) [Example 192, 7-(Hexahydro-pyrrolo[3,4-c]pyrrol-2-yl)-2-(2-quinolin-2-yl-ethyl)-2,3-dihydro-isoindol-1-one]",–,–
